Laboratory results reported in patent US10077237B2 (Sanofi, priority 2013, dated 2018).
“And” between values parts separate entries of the source, which are not always exact repeats. Equal entries are not always repeated. Structures can show the parent of a compound that is named as a salt.

Biological target: T1, recombinant human AMPK complex, containing α2β1γ2 (Homo sapiens, UniProt P54646+Q9Y478)
T1 construct: hsAMPKα2-552-His, hsAMPKβ1-2-270 and hsAMPKγ-2-569 respectively; hsAMPKβ1-2-270; hsAMPKγ-2-569; His (C); made in house; host or cells: Spodoptera frugiperda Sf21 (baculovirus)
T1 sequence (P54646 2-552): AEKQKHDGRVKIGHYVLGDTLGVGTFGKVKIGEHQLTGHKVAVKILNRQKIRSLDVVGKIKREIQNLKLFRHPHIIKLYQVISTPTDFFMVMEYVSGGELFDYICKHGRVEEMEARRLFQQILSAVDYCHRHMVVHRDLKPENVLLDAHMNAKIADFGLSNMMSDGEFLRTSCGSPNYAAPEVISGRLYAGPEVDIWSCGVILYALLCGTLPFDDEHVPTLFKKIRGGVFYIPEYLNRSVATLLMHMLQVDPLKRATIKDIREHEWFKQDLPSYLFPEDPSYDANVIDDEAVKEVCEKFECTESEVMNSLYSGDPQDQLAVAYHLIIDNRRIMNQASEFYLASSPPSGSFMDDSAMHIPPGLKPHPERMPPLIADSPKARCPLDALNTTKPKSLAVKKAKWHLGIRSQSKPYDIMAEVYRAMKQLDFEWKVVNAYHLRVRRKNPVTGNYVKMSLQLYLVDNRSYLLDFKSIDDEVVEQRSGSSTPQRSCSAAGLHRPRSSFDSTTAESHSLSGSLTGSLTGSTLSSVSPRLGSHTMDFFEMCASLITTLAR
T1 sequence (Q9Y478 2-270): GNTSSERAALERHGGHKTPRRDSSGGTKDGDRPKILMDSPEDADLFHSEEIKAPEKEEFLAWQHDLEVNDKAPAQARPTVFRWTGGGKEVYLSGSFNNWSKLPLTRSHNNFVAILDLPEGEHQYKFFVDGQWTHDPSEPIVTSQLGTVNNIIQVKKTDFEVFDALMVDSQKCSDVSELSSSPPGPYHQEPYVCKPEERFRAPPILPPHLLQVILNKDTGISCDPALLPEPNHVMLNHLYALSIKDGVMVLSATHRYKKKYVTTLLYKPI
T1 sequence (Q9UGJ0 2-569 partner limits assumed): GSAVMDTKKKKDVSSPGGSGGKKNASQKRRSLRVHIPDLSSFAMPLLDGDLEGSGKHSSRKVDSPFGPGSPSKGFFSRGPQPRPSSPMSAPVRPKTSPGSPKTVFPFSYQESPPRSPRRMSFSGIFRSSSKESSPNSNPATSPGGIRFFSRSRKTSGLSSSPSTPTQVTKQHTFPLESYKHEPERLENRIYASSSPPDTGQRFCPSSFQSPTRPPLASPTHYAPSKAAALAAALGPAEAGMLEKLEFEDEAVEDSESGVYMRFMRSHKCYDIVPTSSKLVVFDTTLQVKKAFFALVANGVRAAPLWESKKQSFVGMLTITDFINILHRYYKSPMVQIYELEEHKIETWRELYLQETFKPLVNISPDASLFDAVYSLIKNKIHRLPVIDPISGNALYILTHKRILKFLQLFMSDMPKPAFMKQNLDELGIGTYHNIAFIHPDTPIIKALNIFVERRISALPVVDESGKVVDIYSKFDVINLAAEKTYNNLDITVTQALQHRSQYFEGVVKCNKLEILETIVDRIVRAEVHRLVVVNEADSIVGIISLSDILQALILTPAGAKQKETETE
Assay: AMPK in vitro activation assay (HTRF)
Format: biochemical
Settings: for EC50: HTRF, recombinant human α2β1γ2 AMPK, 200 μM ATP, biotinylated ACC-CREBp peptide, repeat determinations on separate lines; for Emax: potentiation of AMPK activity as percent over the basal signal (without compound)
Experimental: The recombinant human AMPK complex, containing α2β1γ2 was obtained from baculovirus expression system and generated by cotransfection in Spodoptera frugiperda 21 (Sf21). […] were produced in serum free medium (SF900 II, Invitrogen) for 82 hours after a triple infection at a multiplicity of infection (M.O.I.) of 0.05, 0.06 and 0.045 for hsAMPKα2-552-His, hsAMPKβ1-2-270 and hsAMPKγ-2-569 respectively. Cells were harvested by centrifugation at 1,000×g for 10 minutes at 4° C. and stored at −80° C. The insect cell pellet from 8 liters of culture was resuspended and homogenized in 580 ml of lysis buffer (20 mM Hepes pH 7.5, 150 mM NaCl, 10 mM imidazole, 50 mM NaF, 10% Glycerol and supplemented with EDTA free proteases inhibitor cocktail Roche). The AMPK complex was partially purified using an affinity chromatography under a Ni-NTA Agarose column equilibrated in the lysis buffer and eluted with a gradient (0 to 400 mM) of Imidazol.
A homogeneous time-resolved fluorescence (HTRF) assay was used (Li et al, Anal. Biochem. (2003) 321, 151-156) to identify compounds with stimulating activity for the recombinant human AMPK. Enzyme reaction was performed into a 96-well microtiter plate. First, 20 μL of test compounds in 0.5% DMSO were dispensed followed by 10 μL of protein in 50 mM HEPES buffer at pH 7.0, 100 mM NaCl, 5 mM MgCl2, 0.01% BSA, 0.8 mM DTT. After, 30 min incubation at room temperature, the reaction was initiated by the addition of 10 μL of a solution containing 200 μM of ATP as donor substrate, 2 μM or 0.08 μM of biotinylated ACC-CREBp peptide (PolyPeptide) as acceptor. Plates were then incubated 45 min at 37° C. The reaction was terminated by the addition of 40 μl detection mixture containing Eu^3+ cryptate-conjugated anti-pS^133-CREB antibody and streptavidine-XL665 (CisBio). Plates were further incubated for 2 h30 at room temperature. The fluorescence signal was measured using an Envision multireader (Perkin Elmer). The non-specific signal was obtained without substrates. Potentiation of AMPK activity was expressed as a percent over the basal signal (without compound) from which an EC50 value was determined.
The EC50 of a graded dose response curve represents the concentration of a compound where 50% of its maximal effect is observed.

SMILES	EC50	Emax
Cc1nnc(C(O)=C2C(=O)Nc3cc(Cl)c(-c4ccc(N5CCOCC5)cc4)cc32)o1 [Compound 16, 6-Chloro-3-[1-hydroxy-1-(5-methyl-[1,3,4]oxadiazol-2-yl)-methylidene]-5-(4-morpholin-4-yl-phenyl)-1,3-dihydro-indol-2-one]	9 nM	268%
COc1ccc(-c2cc3c(cc2Cl)NC(=O)C3=C(O)c2cc(C)no2)cc1 [Compound 20, 6-Chloro-3-[1-hydroxy-1-(3-methyl-isoxazol-5-yl)-methylidene]-5-(4-methoxy-phenyl)-1,3-dihydro-indol-2-one]	410 nM	223%
Cc1cc(C(O)=C2C(=O)Nc3cc(Cl)c(-c4ccc(C5CCCO5)cc4)cc32)on1 (centres unmarked) [Compound 68, 6-Chloro-3-[1-hydroxy-1-(3-methyl-isoxazol-5-yl)methylidene]-5-[4-(tetrahydro-furan-2-yl)phenyl]-1,3-dihydro-indol-2-one]	150 nM	208%
O=C1Nc2cc(Cl)c(-c3ccc(N4CCOCC4)cc3)cc2C1=C(O)c1ccc(F)cc1 [Compound 36, 6-Chloro-3-[1-(4-fluoro-phenyl)-1-hydroxy-methylidene]-5-(4-morpholin-4-yl-phenyl)-1,3-dihydro-indol-2-one]	380 nM	153%
O=C1Nc2cc(Cl)c(-c3ccc(N4CCOCC4)cc3)cc2C1=C(O)c1cccc(C(F)F)c1 [Compound 39, 6-Chloro-3-[1-(3-difluoromethyl-phenyl)-1-hydroxy-methylidene]-5-(4-morpholin-4-yl-phenyl)-1,3-dihydro-indol-2-one]	620 nM	168%
O=C1Nc2cc(Cl)c(-c3ccc(C4=CCOCC4)cc3)cc2C1=C(O)c1cccc(F)c1 [Compound 52, 6-Chloro-5-[4-(3,6-dihydro-2H-pyran-4-yl)-phenyl]-3-[1-(3-fluoro-phenyl)-1-hydroxy-methylidene]-1,3-dihydro-indol-2-one]	120 nM	147%
Cc1nc(C)c(C(O)=C2C(=O)Nc3cc(Cl)c(-c4ccc(N5CCOCC5)cc4)cc32)s1 [Compound 15, 6-Chloro-3-[1-(2,4-dimethyl-thiazol-5-yl)-1-hydroxy-methylidene]-5-(4-morpholin-4-yl-phenyl)-1,3-dihydro-indol-2-one]	27 nM	257%
Cc1cc(C(O)=C2C(=O)Nc3cc(Cl)c(-c4ccc(C5CCN(C)CC5)cc4)cc32)on1 [Compound 78, 6-Chloro-3-[1-hydroxy-1-(3-methyl-isoxazol-5-yl)methylidene]-5-[4-(1-methyl-piperidin-4-yl)phenyl]-1,3-dihydro-indol-2-one, hydrochloride]	7 nM	141%
CCOc1ccc(-c2cc3c(cc2Cl)NC(=O)C3=C(O)c2cc(C)no2)cc1 [Compound 66, 6-Chloro-5-(4-ethoxy-phenyl)-3-[1-hydroxy-1-(3-methyl-isoxazol-5-yl)-methylidene]-1,3-dihydro-indol-2-one]	3070 nM	192%
Cc1cc(C(O)=C2C(=O)Nc3cc(Cl)c(-c4ccc(OCCCN5CCN(C)CC5)cc4)cc32)on1 [Compound 70, 6-Chloro-3-[1-hydroxy-1-(3-methyl-isoxazol-5-yl)methylidene]-5-{4-[3-(4-methyl-piperazin-1-yl)-propoxy]-phenyl}-1,3-dihydro-indol-2-one, hydrochloride]	88 nM	142%
Cc1cc(C(O)=C2C(=O)Nc3cc(Cl)c(-c4ccc(N5CCOCC5)cc4)cc32)no1 [Compound 28, 6-Chloro-3-[1-hydroxy-1-(5-methyl-isoxazol-3-yl)-methylidene]-5-(4-morpholin-4-yl-phenyl)-1,3-dihydro-indol-2-one]	130 nM	150%
COc1cccc(-c2ccc(-c3cc4c(cc3Cl)NC(=O)C4=C(O)c3cc(OCCN4CCOCC4)no3)cc2)c1O [Compound 90, 6-chloro-5-[4-(2-hydroxy-3-methoxy-phenyl)phenyl]-3-[hydroxy-[3-(2-morpholinoethoxy)isoxazol-5-yl]methylene]indolin-2-one]	0.1 nM and 0.2 nM	–
COc1ccc(C(O)=C2C(=O)Nc3cc(Cl)c(-c4ccc(N5CCOCC5)cc4)cc32)cc1F [Compound 77, 6-Chloro-3-[1-(3-fluoro-4-methoxy-phenyl)-1-hydroxy-methylidene]-5-(4-morpholin-4-yl-phenyl)-1,3-dihydro-indol-2-one]	0.5 nM	128%
O=C1Nc2cc(Cl)c(-c3ccc(C4(CO)CC4)cc3)cc2C1=C(O)c1cccc(F)c1 [Compound 27, 6-Chloro-3-[1-(3-fluoro-phenyl)-1-hydroxy-methylidene]-5-[4-(1-hydroxymethyl-cyclopropyl)-phenyl]-1,3-dihydro-indol-2-one]	2 nM	129%
O=C1Nc2cc(Cl)c(-c3ccc(N4CCOCC4)cc3)cc2C1=C(O)c1cccc(O)c1 [Compound 3, 6-Chloro-3-[1-hydroxy-1-(3-hydroxy-phenyl)-methylidene]-5-(4-morpholin-4-yl-phenyl)-1,3-dihydro-indol-2-one]	190 nM	138%

Other lines, results leading:

EC50	Emax	SMILES
0.5 nM	133%	COc1cc(C(O)=C2C(=O)Nc3cc(F)c(-c4ccc(C5(CO)CC5)cc4)cc32)on1 [Compound 118, 6-fluoro-3-[hydroxy-(3-methoxyisoxazol-5-yl)methylene]-5-[4-[1-(hydroxymethyl)cyclopropyl]phenyl]indolin-2-one]
0.1 nM	172%	O=C1Nc2cc(Cl)c(-c3ccc(C4(CO)CC4)cc3)cc2C1=C(O)c1cc2ncccc2o1 [Compound 169, 6-chloro-3-[furo[3,2-b]pyridin-2-yl(hydroxy)methylene]-5-[4-[1-(hydroxymethyl)cyclopropyl]phenyl]indolin-2-one]
25 nM	231%	COc1cc(C(O)=C2C(=O)Nc3cc(Cl)c(-c4ccc(OC5CCN(C)CC5)cc4)cc32)on1 [Compound 124, 6-chloro-3-[hydroxy-(3-methoxyisoxazol-5-yl)methylene]-5-[4-[(1-methyl-4-piperidyl)oxy]phenyl]indolin-2-one hydrochloride]
9 nM	394%	COc1cc(C(O)=C2C(=O)Nc3cc(Cl)c(-c4ccc(C5CCNC5)cc4)cc32)on1 (centres unmarked) [Compound 134, 6-chloro-3-[hydroxy-(3-methoxyisoxazol-5-yl)methylene]-5-(4-pyrrolidin-3-ylphenyl)indolin-2-one hydrochloride]
117 nM	156%	COc1cc(C(O)=C2C(=O)Nc3cc(Cl)c(-c4ccc(C5CCN(CC(F)(F)F)C5)cc4)cc32)on1 (centres unmarked) [Compound 167, 6-chloro-3-[hydroxy-(3-methoxyisoxazol-5-yl)methylene]-5-[4-[1-(2,2,2-trifluoroethyl)pyrrolidin-3-yl]phenyl]indolin-2-one hydrochloride]
6 nM	161%	COc1ccc(C(O)=C2C(=O)Nc3cc(Cl)c(-c4ccc(N5CCOCC5)cc4)cc32)cn1 [Compound 151, 6-chloro-3-[hydroxy-(6-methoxy-3-pyridyl)methylene]-5-(4-morpholinophenyl)indolin-2-one]
2 nM	229%	COc1cc(C(O)=C2C(=O)Nc3cc(Cl)c(-c4ccc(N5CCC(O)C5)cc4)cc32)on1 (centres unmarked) [Compound 156, 6-chloro-3-[hydroxy-(3-methoxyisoxazol-5-yl)methylene]-5-[4-(3-hydroxypyrrolidin-1-yl)phenyl]indolin-2-one]
30 nM	149%	Cc1cc(C(O)=C2C(=O)Nc3cc(Cl)c(-c4ccc(OCC5CCO5)cc4)cc32)on1 (centres unmarked) [Compound 115, 6-chloro-3-[hydroxy-(3-methylisoxazol-5-yl)methylene]-5-[4-(oxetan-2-ylmethoxy)phenyl]indolin-2-one]
0.3 nM	172%	COc1cc(C(O)=C2C(=O)Nc3cc(F)c(-c4ccc(-c5cccc(OC)c5O)cc4)c(F)c32)on1 [Compound 92, 4,6-difluoro-3-[hydroxy-(3-methoxyisoxazol-5-yl)methylene]-5-[4-(2-hydroxy-3-methoxy-phenyl)phenyl]indolin-2-one]
